Measurements from ChEMBL document CHEMBL1148983, “A diketopiperazine dimer from a marine-derived isolate of Aspergillus niger” (J Nat Prod, 2004).

Experiments:
[1] = Inhibition of viral IRES-mediated translation in human HeLa cells after 60 mins by luciferase reporter gene assay; type: functional, cell-based; settings: 1 h
[2] = Inhibition of mammalian 5'-Cap- RNA dependent translation in human HeLa cells after 60 mins by luciferase reporter gene assay; type: functional, cell-based; settings: 1 h

IC50 [1] [µM]	IC50 [2] [µM]	Compound
44	80	COc1cc(O)cc2cc3oc(C)cc(=O)c3c(O)c12
> 100	> 100	COc1cc(O)cc2cc(O)c3c(=O)cc(C)oc3c12
> 100	> 100	CC(C)C[C@H]1NC(=O)[C@H]2C[C@@]3([C@@]45C[C@@H]6C(=O)N[C@H](C(C)C)C(=O)N6[C@@H]4Nc4ccccc45)c4ccccc4N[C@H]3N2C1=O
> 100	> 100	COc1cc(C)c2c(OC)cc(=O)oc2c1-c1c(O)cc(C)c2c(OC)cc(=O)oc12 [DEMETHYLKOTANIN]
